Measurements: the supplement of paper PMC10307832

Columns and labels:
Assay in all cases: relative viability (nuclei count vs DMSO), 5 days (fraction); higher = more cells survive
[1] = compound: O=C(O)C(Cc1ccccc1[N+](=O)[O-])=NNc1nc(-c2ccc(Cl)c(Cl)c2)cs1 (mixture of isomers) [4EGI-1] + C[C@@H](Oc1cc(-c2cnn(C3CCNCC3)c2)cnc1N)c1c(Cl)ccc(F)c1Cl [Crizotinib] (partner 1 µM)
Procedure, shortened: (§1)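 Lung cancer cell lines were pin-tool dosed in 1536-well plates on the day after seeding, with either a lone drug or a fixed anchor-drug dose plus five library-drug doses (not always all listed) in √10 steps. Nuclei were counted on 4× images after 5 days. Relative viability is the ratio of treated-well to vehicle-well nuclei counts, with each value a median of duplicate plates.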

[2] = compound: CN1CCN(CC1)C2=CC(=C(C=C2)NC3=NC=C4C(=N3)N(C5=CC=CC=C5C(=O)N4C)C)OC [XMD8-85] + CC(=O)c1c(C)c2cnc(Nc3ccc(N4CCNCC4)cn3)nc2n(C2CCCC2)c1=O [Palbociclib] (partner 0.5 µM)
Procedure, shortened: as §1

[3] = compound: CN1CCN(CC1)C2=CC(=C(C=C2)NC3=NC=C4C(=N3)N(C5=CC=CC=C5C(=O)N4C)C)OC [XMD8-85] + CC1(C)CCC(c2ccc(Cl)cc2)=C(CN2CCN(c3ccc(C(=O)NS(=O)(=O)c4ccc(N[C@H](CCN5CCOCC5)CSc5ccccc5)c(S(=O)(=O)C(F)(F)F)c4)cc3)CC2)C1 [Navitoclax] (partner 0.5 µM)
Procedure, shortened: as §1

[4] = compound: O=C(O)C(Cc1ccccc1[N+](=O)[O-])=NNc1nc(-c2ccc(Cl)c(Cl)c2)cs1 (mixture of isomers) [4EGI-1] + C[C@]1(O)C[C@@H](c2nc(-c3ccc4ccc(-c5ccccc5)nc4c3)c3c(N)nccn32)C1 [Linsitinib] (partner 1 µM)
Procedure, shortened: as §1

Row | Cell Line | relative viability ([1]; first compound 0.5 µM) | relative viability ([1]; first compound 1.581 µM) | relative viability ([1]; first compound 5 µM) | relative viability ([1]; first compound 15.81 µM) | relative viability ([1]; first compound 50 µM) | relative viability ([2]; first compound 0.08 µM) | relative viability ([2]; first compound 0.253 µM) | relative viability ([2]; first compound 0.8 µM) | relative viability ([2]; first compound 2.53 µM) | relative viability ([2]; first compound 8 µM) | relative viability ([3]; first compound 0.08 µM) | relative viability ([3]; first compound 0.253 µM) | relative viability ([3]; first compound 0.8 µM) | relative viability ([3]; first compound 2.53 µM) | relative viability ([3]; first compound 8 µM) | relative viability ([4]; first compound 0.5 µM) | relative viability ([4]; first compound 1.581 µM) | relative viability ([4]; first compound 5 µM) | relative viability ([4]; first compound 15.81 µM) | relative viability ([4]; first compound 50 µM)
1 | NCI-H2228 | 0.416 | 0.508 | 0.653 | 0.502 | 0.195 | 0.651 | 0.572 | 0.828 | 0.844 | 0.35 | 0.893 | 0.929 | 0.619 | 0.81 | 0.353 | 0.778 | 0.783 | 0.734 | 0.721 | 0.166
2 | NCI-H460 | 1.2 | – | 1.02 | 0.517 | 0.0403 | 0.129 | 0.221 | 0.139 | 0.223 | 0.0809 | 1.07 | 1.21 | 1.14 | 1.22 | 0.415 | 0.777 | – | 1.07 | 0.182 | 0.0218
3 | NCI-H2347 | 0.841 | 0.667 | 0.753 | 0.567 | 0.556 | 0.523 | 0.457 | 0.395 | 0.456 | 0.352 | 0.757 | 0.852 | – | 0.809 | 0.63 | 1.08 | 0.805 | 0.96 | 0.944 | 0.87
4 | EMC-BAC-2 | 0.776 | 0.594 | 0.706 | 0.627 | 0.306 | 0.494 | 0.495 | 0.504 | 0.473 | 0.458 | 1.12 | 1.23 | 1.16 | 1.13 | 1.16 | 0.86 | 0.748 | 0.791 | 0.777 | 0.736
5 | NCI-H1437 | 0.931 | 0.9 | 0.77 | 0.837 | 0.315 | 0.295 | 0.311 | 0.289 | 0.309 | 0.203 | 1.16 | 1.16 | 1.13 | 0.979 | 0.591 | 1.16 | 1 | 0.919 | 0.241 | 0.152
6 | NCI-H2009 | 1.12 | 1.05 | 1.06 | 0.988 | 0.247 | 0.198 | 0.208 | 0.184 | 0.163 | 0.154 | 1.13 | 1.12 | 1.19 | 1.08 | 0.717 | 1.33 | 1.23 | 1.29 | 1.07 | 0.885
7 | NCI-H1944 | 1.18 | – | 1.01 | 0.981 | 0.599 | 0.319 | 0.319 | 0.362 | 0.33 | 0.313 | 1.13 | 1.1 | 1.18 | 1.16 | 1.12 | 1.39 | – | 1.21 | 1.1 | 1.13
8 | NCI-H1734 | 0.817 | 0.695 | 0.72 | 0.605 | 0.437 | 0.315 | 0.329 | – | 0.384 | 0.281 | 0.806 | 0.888 | 0.78 | 0.952 | 0.504 | 0.948 | 0.866 | 0.991 | 1 | 0.529
9 | SK-LU-1 | 0.891 | 1.05 | 0.943 | 0.688 | 0.334 | 0.358 | 0.364 | 0.392 | 0.356 | 0.385 | 0.839 | 0.795 | 1.1 | 0.888 | 0.293 | 1.31 | 1.35 | 1.46 | 1.14 | 0.283
10 | NCI-H1915 | 0.924 | 0.62 | 0.847 | 0.907 | 0.477 | 0.721 | 0.529 | 0.537 | 0.549 | 0.371 | 0.859 | 0.817 | 0.791 | 0.771 | 0.622 | 1.12 | 0.779 | 1.06 | 1.07 | 0.861
11 | SW 1573 | 0.937 | 0.842 | 0.87 | 0.722 | 0.424 | – | 0.387 | 0.431 | 0.365 | 0.192 | 1.13 | 1.02 | 0.896 | 0.801 | 0.545 | 1 | 0.669 | 0.917 | 0.741 | 0.961
12 | CAL-12T | 0.663 | – | 0.742 | 0.618 | 0.281 | 0.308 | 0.499 | – | 0.474 | 0.196 | 1.18 | 1.11 | 1.1 | 1.06 | 0.759 | 0.87 | 0.598 | 0.922 | 0.779 | 0.859
13 | A-427 | 1.02 | 0.728 | 0.791 | 0.822 | 0.424 | 0.521 | 0.544 | 0.571 | 0.52 | 0.463 | 0.993 | 0.995 | 1.03 | 1.03 | 0.95 | 1.09 | 0.93 | 1.03 | 1.07 | 0.618
14 | LCLC-97TM1 | 0.445 | – | 0.397 | 0.302 | 0.172 | 0.192 | 0.188 | 0.188 | 0.204 | 0.239 | 0.299 | 0.474 | 0.442 | 0.329 | 0.796 | 0.161 | – | 0.203 | 0.198 | 0.165
15 | LK-2 | 0.244 | – | 0.253 | 0.256 | 0.216 | 0.554 | 0.778 | 0.592 | 0.491 | 0.668 | 0.74 | 0.915 | 0.883 | 0.772 | 0.699 | 0.587 | 0.357 | 0.777 | 0.604 | 0.549
16 | SK-MES-1 | 1.04 | 0.957 | 1.02 | 0.872 | 0.921 | 0.342 | 0.351 | 0.31 | – | 0.248 | 1.22 | 1.33 | 1.06 | 1.19 | 0.866 | 1.12 | 1.07 | 1.1 | 0.887 | 0.987
